Data on 22 molecules can be found in PubChem BioAssay (NCI).

Test systems include SNB-75 CNS; SK-MEL-28 melanoma; SK-OV-3 ovarian; NCI-H226 lung; SF-539 CNS; HT29 colon; SK-MEL-5 melanoma; MDA-MB-435; NCI-H460 lung.
Common to all, as to test: growth of human tumour cells (NCI), 48 h

Each structure is given as a SMILES string.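 Growth conditions: 96-well plates. Treatment: test compound, 48 hours, 5 concentrations. Analysis: linear interpolation between bracketing concentrations; unreached endpoints set to highest concentration. The concentration for full growth arrest is given as TGI.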

Regarding `O=C(Nc1ccc(S(=O)(=O)/N=c2\ncccn2C(=O)C(C(F)(F)F)C(F)(F)F)cc1)C(C(F)(F)F)C(F)(F)F`, the TGI in the experiment on SNB-75 CNS, with SK-MEL-28 melanoma, in the experiment with SK-OV-3 ovarian, in the experiment with NCI-H226 lung, in the experiment with SF-539 CNS and in the experiment with HT29 colon was over 100 µM each time. Moreover, the TGI in the experiment on SK-MEL-5 melanoma, in the experiment with MDA-MB-435 and in the experiment with NCI-H460 lung was over 100 µM each time.

Take `C[C@@H]1CC(=O)C[C@@H]2CC[C@H]3[C@@H]4CC[C@H](OC(=O)c5cccc6cc7ccccc7nc56)[C@H]4CC[C@@H]3[C@H]21`: the TGI with SNB-75 CNS was found to be 36.5 µM; with SK-MEL-28 melanoma, 93.3 µM; with SK-OV-3 ovarian it was 66.7 µM; in the experiment with NCI-H226 lung it was 63.7 µM; in the experiment with SF-539 CNS, 38.6 µM; with HT29 colon, 29.3 µM. Also, the TGI in the experiment with SK-MEL-5 melanoma turned out to be 28.3 µM; with MDA-MB-435, 35.1 µM; in the experiment on NCI-H460 lung it was 30.8 µM.

As to `C/C(=N\O)c1cccc[n+]1Cc1ccccc1`, the TGI with SNB-75 CNS, in the experiment with SK-MEL-28 melanoma, with SK-OV-3 ovarian, in the experiment on NCI-H226 lung, with SF-539 CNS and in the experiment on HT29 colon was over 100 µM throughout. Besides, the TGI in the experiment with SK-MEL-5 melanoma, in the experiment on MDA-MB-435 and in the experiment with NCI-H460 lung was over 100 µM throughout.

`COc1ccccc1C(=O)NCC1CCCN2CCCCC12` (configuration not stated): the TGI with SNB-75 CNS, in the experiment on SK-MEL-28 melanoma, in the experiment with SK-OV-3 ovarian, in the experiment with NCI-H226 lung, in the experiment on SF-539 CNS and in the experiment on HT29 colon was over 100 µM in each case. Also, the TGI in the experiment on SK-MEL-5 melanoma, in the experiment on MDA-MB-435 and with NCI-H460 lung was over 100 µM each time.

With `Cc1cc(S(=O)(=O)Nc2n[nH]c(N)n2)c(Cl)cc1Cl`, the TGI in the experiment with SNB-75 CNS, in the experiment on SK-MEL-28 melanoma, with SK-OV-3 ovarian, in the experiment on NCI-H226 lung, in the experiment on SF-539 CNS and in the experiment on HT29 colon was over 10 µM throughout. In addition, the TGI with SK-MEL-5 melanoma, with MDA-MB-435 and in the experiment on NCI-H460 lung was over 10 µM each time.

Regarding `O=C(/C=C(\C(=O)c1cccs1)c1cccs1)c1ccc(C(=O)/C=C(\C(=O)c2cccs2)c2cccs2)cc1`, the TGI in the experiment on SNB-75 CNS, in the experiment on SK-MEL-28 melanoma, with SK-OV-3 ovarian, with NCI-H226 lung, with SF-539 CNS and with HT29 colon was over 100 µM throughout. Moreover, the TGI in the experiment with SK-MEL-5 melanoma, in the experiment on MDA-MB-435 and in the experiment on NCI-H460 lung was over 100 µM each time.

For `C(#CP(c1ccccc1)c1ccccc1)P(C#CP(c1ccccc1)c1ccccc1)c1ccccc1`, the TGI is over 100 µM in the experiment on SNB-75 CNS; over 100 µM in the experiment with SK-MEL-28 melanoma; 26.1 µM in the experiment with SK-OV-3 ovarian; over 100 µM in the experiment with NCI-H226 lung; over 100 µM in the experiment with SF-539 CNS; over 100 µM with HT29 colon. Moreover, the TGI in the experiment with SK-MEL-5 melanoma, with MDA-MB-435 and in the experiment with NCI-H460 lung was over 100 µM each time.

`COc1ccc(NCC(=O)Nn2c(-c3ccccc3)nc3ccccc3c2=O)cc1`: the TGI in the experiment with SNB-75 CNS, in the experiment on SK-MEL-28 melanoma, in the experiment on SK-OV-3 ovarian, in the experiment with NCI-H226 lung, in the experiment with SF-539 CNS and in the experiment on HT29 colon was over 100 µM in each case. Besides, the results for the TGI in the experiment with SK-MEL-5 melanoma, in the experiment with MDA-MB-435 and in the experiment on NCI-H460 lung were 32.8 µM, over 100 µM and over 100 µM, respectively.

For `O=C1CSC(c2ccc(Cl)cc2Cl)N1c1ccc(Oc2ccc(Cl)cc2)c(Cl)c1` (configuration not stated), the TGI is 60 µM in the experiment with SNB-75 CNS; over 100 µM in the experiment on SK-MEL-28 melanoma; 85.6 µM in the experiment with SK-OV-3 ovarian; over 100 µM in the experiment on NCI-H226 lung; 86.7 µM with SF-539 CNS; 30.6 µM in the experiment with HT29 colon. Moreover, the TGI was 43.6 µM in the experiment with SK-MEL-5 melanoma, 26.3 µM in the experiment with MDA-MB-435 and 84.4 µM in the experiment on NCI-H460 lung.

In the case of `CCCCCCCCCCCCCCCCNc1ccn(C2CC(O)C(COC(c3ccccc3)(c3ccccc3)c3ccc(OC)cc3)O2)c(=O)n1` (configuration not stated), the TGI in the experiment on SNB-75 CNS, with SK-MEL-28 melanoma, in the experiment on SK-OV-3 ovarian, in the experiment on NCI-H226 lung, with SF-539 CNS and in the experiment with HT29 colon was over 100 µM throughout. Also, the TGI with SK-MEL-5 melanoma, in the experiment with MDA-MB-435 and with NCI-H460 lung was over 100 µM throughout.

As for `Cc1cccc(CC(Cc2ccc(C)cc2C(=O)O)C(=O)O)c1` (configuration not stated), the TGI with SNB-75 CNS, in the experiment on SK-MEL-28 melanoma, with SK-OV-3 ovarian, with NCI-H226 lung, in the experiment on SF-539 CNS and with HT29 colon was over 100 µM throughout. Further, the TGI in the experiment on SK-MEL-5 melanoma, in the experiment on MDA-MB-435 and in the experiment with NCI-H460 lung was over 100 µM each time.

Turning to `COc1ccccc1C1(c2c(OC)c(=O)c2=O)SCCCS1`, the TGI in the experiment with SNB-75 CNS, with SK-MEL-28 melanoma, in the experiment on SK-OV-3 ovarian, in the experiment on NCI-H226 lung, in the experiment on SF-539 CNS and in the experiment on HT29 colon was over 100 µM each time. Moreover, the TGI in the experiment on SK-MEL-5 melanoma, in the experiment on MDA-MB-435 and with NCI-H460 lung was over 100 µM each time.

Regarding `COc1cc(OC)c2c(c1)OC(c1cccnc1)C(c1ccccc1)C2=O` (configuration not stated), the TGI in the experiment with SNB-75 CNS, in the experiment on SK-MEL-28 melanoma, in the experiment with SK-OV-3 ovarian, in the experiment with NCI-H226 lung, in the experiment on SF-539 CNS and with HT29 colon was over 100 µM in each case. Also, the TGI with SK-MEL-5 melanoma, in the experiment on MDA-MB-435 and in the experiment with NCI-H460 lung was over 100 µM throughout.

As to `COC(=O)c1cc(OC)c(OC)c(OC)c1-c1cc2c(cc1C=O)OCO2`, the TGI in the experiment on SNB-75 CNS, with SK-MEL-28 melanoma, with SK-OV-3 ovarian, in the experiment on NCI-H226 lung, in the experiment on SF-539 CNS and with HT29 colon was over 10 µM throughout. Moreover, the TGI with SK-MEL-5 melanoma, with MDA-MB-435 and in the experiment with NCI-H460 lung was over 10 µM each time.

Turning to `COc1cc2c(/C=C3/C(=O)N(C)c4ccc(O)cc43)c(Cl)[nH]c2cc1C`, the TGI came out at 20.8 µM in the experiment on SNB-75 CNS; 15.4 µM with SK-MEL-28 melanoma; 3.13 µM in the experiment on SK-OV-3 ovarian; 16.2 µM in the experiment on NCI-H226 lung; 0.722 µM in the experiment with SF-539 CNS; 46.7 µM in the experiment on HT29 colon. Further, the TGI in the experiment on SK-MEL-5 melanoma came out at 6.35 µM; with MDA-MB-435, 0.124 µM; with NCI-H460 lung, 19.8 µM.

Consider `O=C(SCc1cccc2ccccc12)c1ccc(Cl)cc1`, for which the TGI with SNB-75 CNS, with SK-MEL-28 melanoma, with SK-OV-3 ovarian, with NCI-H226 lung, in the experiment on SF-539 CNS and with HT29 colon was over 100 µM throughout. The TGI in the experiment with SK-MEL-5 melanoma, in the experiment on MDA-MB-435 and with NCI-H460 lung was over 100 µM throughout.

As to `CCn1c(CCl)nc2c1C(=O)c1ccccc1C2=O`, the TGI with SNB-75 CNS turned out to be 3.62 µM; in the experiment on SK-MEL-28 melanoma it was 3.19 µM; with SK-OV-3 ovarian it was 2.38 µM; in the experiment on NCI-H226 lung, 0.473 µM; with SF-539 CNS, 4.89 µM; in the experiment with HT29 colon, 3.47 µM. The TGI in the experiment with SK-MEL-5 melanoma came out at 2.84 µM; in the experiment with MDA-MB-435, 3.12 µM; with NCI-H460 lung it was 3.9 µM.

For the molecule `Cc1c2c(n(CC(c3ccccc3)c3ccccc3)c1C)NN=C(C#N)S2(=O)=O`, the TGI with SNB-75 CNS, in the experiment with SK-MEL-28 melanoma, in the experiment on SK-OV-3 ovarian, in the experiment on NCI-H226 lung, with SF-539 CNS and in the experiment on HT29 colon was over 100 µM each time. Moreover, the TGI in the experiment with SK-MEL-5 melanoma, with MDA-MB-435 and in the experiment with NCI-H460 lung was over 100 µM each time.

For `CC(C)(NC(=O)OCc1ccccc1)C(=O)OC(=O)C(C)(C)NC(=O)OCc1ccccc1`, the TGI with SNB-75 CNS, in the experiment with SK-MEL-28 melanoma, in the experiment on SK-OV-3 ovarian, in the experiment with NCI-H226 lung, in the experiment with SF-539 CNS and with HT29 colon was over 100 µM each time. Moreover, the TGI in the experiment on SK-MEL-5 melanoma, in the experiment with MDA-MB-435 and in the experiment on NCI-H460 lung was over 100 µM throughout.

Turning to `OC1(c2ccc(Cl)cc2)c2ccccc2-c2nc3ccccc3n21` (configuration not stated), the TGI in the experiment on SNB-75 CNS, with SK-MEL-28 melanoma, in the experiment with SK-OV-3 ovarian, with NCI-H226 lung, in the experiment on SF-539 CNS and in the experiment on HT29 colon was over 100 µM each time. The TGI in the experiment on SK-MEL-5 melanoma, with MDA-MB-435 and in the experiment on NCI-H460 lung was over 100 µM throughout.

Turning to `C#CC(O)/C=C/CCCCCCC#CC/C=C\CC#CCCCCCCCCC(O)C#C` (configuration not stated), the TGI with SNB-75 CNS amounted to 23.4 µM; with SK-MEL-28 melanoma, 13.1 µM; in the experiment with SK-OV-3 ovarian, 32.3 µM; in the experiment with NCI-H226 lung, 35.5 µM; in the experiment with SF-539 CNS it was 40.4 µM; with HT29 colon, 12.3 µM. The TGI in the experiment on SK-MEL-5 melanoma worked out at 9.71 µM; in the experiment with MDA-MB-435, 7.43 µM; in the experiment with NCI-H460 lung, 41.5 µM.

For `C=C(Cl)C(Cl)(CCl)CCC(Br)C(C)(C)Br` (configuration not stated), the TGI in the experiment with SNB-75 CNS, in the experiment on SK-MEL-28 melanoma, with SK-OV-3 ovarian, in the experiment on NCI-H226 lung, with SF-539 CNS and in the experiment with HT29 colon was over 10 µM each time. The TGI with SK-MEL-5 melanoma and in the experiment with MDA-MB-435 was over 10 µM each time.
